Laboratory results as given in ChEMBL document CHEMBL2413062, “Effect of single pyrrole replacement with β-alanine on DNA binding affinity and sequence specificity of hairpin pyrrole/imidazole polyamides targeting 5'-GCGC-3'” (Bioorg Med Chem, 2013).
pKd: −log10 of the molar value.

How the values were obtained:
[1] = Binding affinity to hair pin DNA ODN1 5'-XGCCAGCGCGGCTTTTGCCGCGCTGGC-3' (unknown origin) by surface plasmon resonance analysis
[2] = Binding affinity to hair pin DNA ODN2 5'-XGCCAGTGCGGCTTTTGCCGCACTGGC-3' (unknown origin) by surface plasmon resonance analysis
[3] = Binding affinity to hair pin DNA ODN4 5'-XGCCATGACGGCTTTTGCCGTACTGGC-3' (unknown origin) by surface plasmon resonance analysis
[4] = Binding affinity to hair pin DNA ODN3 5'-XGCCAGCACGGCTTTTGCCGTGCTGGC-3' (unknown origin) by surface plasmon resonance analysis
[5] = Selectivity ratio of Kd for mismatched hair pin DNA ODN3 5'-XGCCAGCACGGCTTTTGCCGTGCTGGC-3' (unknown origin) to Kd for hair pin DNA ODN1 5'-XGCCAGCGCGGCTTTTGCCGCGCTGGC-3' (unknown origin)
[6] = Selectivity ratio of Kd for mismatched hair pin DNA ODN4 5'-XGCCATGACGGCTTTTGCCGTACTGGC-3' (unknown origin) to Kd for hair pin DNA ODN1 5'-XGCCAGCGCGGCTTTTGCCGCGCTGGC-3' (unknown origin)
[7] = Selectivity ratio of Kd for mismatched hair pin DNA ODN2 5'-XGCCAGTGCGGCTTTTGCCGCACTGGC-3' (unknown origin) to Kd for hair pin DNA ODN1 5'-XGCCAGCGCGGCTTTTGCCGCGCTGGC-3' (unknown origin)

Row | pKd [1] | pKd [2] | pKd [3] | pKd [4] | Ratio [5] | Ratio [6] | Ratio [7] | Compound
1 | 9.36 | 7.05 | 7.33 | 7.96 |  |  |  | CN(C)CCCNC(=O)CCNC(=O)c1cc(NC(=O)c2nc(NC(=O)c3cc(NC(=O)c4nc(NC(=O)CCCNC(=O)c5cc(NC(=O)c6nc(NC(=O)CCNC(=O)c7nc(NC(=O)CCNC(=O)CCN)cn7C)cn6C)cn5C)cn4C)cn3C)cn2C)cn1C
2 | 9.15 | 7.96 | 6.72 | 7.08 | 120 | 270 | 16 | CN(C)CCCNC(=O)CCNC(=O)c1cc(NC(=O)c2nc(NC(=O)CCNC(=O)c3nc(NC(=O)CCCNC(=O)c4cc(NC(=O)c5nc(NC(=O)c6cc(NC(=O)c7nc(NC(=O)CCNC(=O)CCN)cn7C)cn6C)cn5C)cn4C)cn3C)cn2C)cn1C
3 | 6.57 | 4.17 | 4.09 | 4.20 | 230 | 300 | 250 | CN(C)CCCNC(=O)CCNC(=O)c1cc(NC(=O)c2nc(NC(=O)c3cc(NC(=O)c4nc(NC(=O)CCCNC(=O)c5cc(NC(=O)c6nc(NC(=O)c7cc(NC(=O)c8nc(NC(=O)CCNC(=O)CCN)cn8C)cn7C)cn6C)cn5C)cn4C)cn3C)cn2C)cn1C
4 | 9.20 | 7.96 | 7.74 | 7.96 | 17 | 29 | 17 | CN(C)CCCNC(=O)CCNC(=O)c1cc(NC(=O)c2nc(NC(=O)CCNC(=O)c3nc(NC(=O)CCCNC(=O)c4cc(NC(=O)c5nc(NC(=O)CCNC(=O)c6nc(NC(=O)CCNC(=O)CCN)cn6C)cn5C)cn4C)cn3C)cn2C)cn1C
